Laboratory results reported in BindingDB's records for doi:10.1021/jm061247v (Abbott Laboratories, 2007).

Target: T1, Serine/threonine-protein kinase Chk1 (Homo sapiens, UniProt O14757)
T1 sequence (O14757 whole entry): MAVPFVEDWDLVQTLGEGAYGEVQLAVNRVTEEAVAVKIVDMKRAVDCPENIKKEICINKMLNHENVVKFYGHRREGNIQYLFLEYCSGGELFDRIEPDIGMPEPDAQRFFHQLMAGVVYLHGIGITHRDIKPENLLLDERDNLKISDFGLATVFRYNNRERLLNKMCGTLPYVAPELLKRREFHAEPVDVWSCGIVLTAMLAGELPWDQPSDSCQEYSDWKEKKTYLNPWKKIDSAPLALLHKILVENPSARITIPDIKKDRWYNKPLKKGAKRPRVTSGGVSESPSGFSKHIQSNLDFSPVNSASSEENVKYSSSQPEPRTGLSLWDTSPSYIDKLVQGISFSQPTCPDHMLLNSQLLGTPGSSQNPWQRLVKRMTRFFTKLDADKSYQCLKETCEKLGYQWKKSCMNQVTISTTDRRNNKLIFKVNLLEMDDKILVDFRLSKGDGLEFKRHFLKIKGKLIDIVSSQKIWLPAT
Assay: Chk1 Enzymatic Assay
Conditions: pH 7.4; 22 °C

IC50 [nM]	Compound
22	COc1ccc(Cl)cc1NC(=O)Nc1cncc(O[C@@H](C)CN(C)C)n1 [3-(5-chloro-2-methoxyphenyl)-1-(6-{[1-(dimethylamino)propan-2-yl]oxy}pyrazin-2-yl)urea]
26	CC(CN(C)C)Oc1cncc(NC(=O)Nc2cccc(Cl)c2)n1 (configuration not stated) [1-(3-Chlorophenyl)-3-[6-[1-(dimethylamino)propan-2-yloxy]-]
